Laboratory results taken from patent US20080311214A1, “Polymerized solid lipid nanoparticles for oral or mucosal delivery of therapeutic proteins and peptides” (Transgene Biotek Limited, priority 2006, published 2008).

System: STZ induced diabetic rats
Experiment: Reduction in serum glucose in STZ induced diabetic rats
Assay type: in vivo, Wistar rats
Conditions: 10 IU/Kg insulin via subcutaneous route
Procedure: Wistar rats (150-200 g) of both sexes were obtained from National Institute of Nutrition, Hyderabad. The animals were housed at a room temperature of 22±2° C. with 12 h light/dark cycle and 45-50% relative humidity. The animals had ad libitum access to a standard chow diet (Nutrilab, Banglore) and water except, wherever indicated. After randomization into various groups, the rats were acclimatized for a period of seven days in the new environment before initiation of the experiment.
Diabetes was induced by streptozotocin (STZ) injection. STZ in rats leads to the development of a clinical syndrome characterized by hyperglycemia, excessive osmotic diuresis, and loss of weight, which is similar to human diabetes. Moreover, the STZ-diabetic rat develops the usual chronic microvascular complications (nephropathy, peripheral and autonomic neuropathy) as observed in diabetic patients. Schaan, B. D., et al. Braz J Med Biol Res, 37:12:1895-1902 (2004).
Animals were made diabetic by injecting 50-60 mg/kg STZ dissolved in sodium citrate buffer, pH 4.5. Rats were fasted overnight before STZ administration. STZ-treated rats were used only when they developed elevated plasma glucose levels (confirmed by qualitative measurements of blood glucose >300 mg% 48 h after injection). Metabolic control was evaluated on the basis of plasma glucose and animal weight at the end of the experiments.
The diabetic rats were randomly divided in to six groups consisting of 4 animals. The lyophilized lectin coupled insulin loaded solid lipid nanoparticle formulations (F1, F2, F3 and F4), mentioned in the above examples, containing 10 IU/Kg of total insulin were administered orally to the respective groups after re-dispersing in the appropriate volume of physiological saline solution. The fifth group was treated with 10 IU/Kg of insulin via subcutaneous route and the sixth group was the control group. The control diabetic rats were not treated with insulin or any drug, but an equivalent volume of physiological saline solution was given orally.
The blood samples were collected at each scheduled time intervals. The plasma was separated by centrifugation and serum glucose levels were estimated as described in Bergmeyer, H. U. Methods of Enzymatic Analysis New York: Academic (1974). Plasma samples of all animals were stored at −80° C. until analyzed.

insulin [Unencapsulated Insulin]
Mean % Reduction in serum Glucose Levels (2.0 hrs): 8.2 ± 2.3%
Mean % Reduction in serum Glucose Levels (3.0 hrs): 15.1 ± 1.2%
Mean % Reduction in serum Glucose Levels (4.0 hrs): 23.2 ± 3.2%
Mean % Reduction in serum Glucose Levels (5.0 hrs): 36.2 ± 1.2%
Mean % Reduction in serum Glucose Levels (6.0 hrs): 12.1 ± 4.3%
Mean % Reduction in serum Glucose Levels (8.0 hrs): 19.2 ± 3.3%
Mean % Reduction in serum Glucose Levels (10.0 hrs): 25.1 ± 3.2%
Mean % Reduction in serum Glucose Levels (12.0 hrs): 29.2 ± 1.2%
